Holding throughout (assay type): functional
One assay concerns Staphylococcus aureus. Put plainly: Antibacterial activity against Staphylococcus aureus ATCC 25923 at 30 ug/disk after 24 hrs by diffusion technique. As to conditions: ATCC 25923, 24 h, read-out: DIZ.
Assay [1] deals with Staphylococcus saprophyticus. Put plainly: Antibacterial activity against Staphylococcus saprophyticus at 30 ug/disk after 24 hrs by diffusion technique. As to conditions: read-out: DIZ.
The next assay has as its system Micrococcus luteus. Put plainly: Antibacterial activity against Sarcina lutea ATCC 9341 at 30 ug/disk after 24 hrs by diffusion technique. As to conditions: ATCC 9341, 24 h, read-out: DIZ.
The next assay relates to Bacillus cereus. Put plainly: Antibacterial activity against Bacillus cereus at 30 ug/disk after 24 hrs by diffusion technique. As to conditions: read-out: DIZ.
The next assay deals with Bacillus subtilis. Put plainly: Antibacterial activity against Bacillus subtilis at 30 ug/disk after 24 hrs by diffusion technique. The following applies: read-out: DIZ.
Another assay relates to Escherichia coli. Briefly: Antibacterial activity against Escherichia coli ATCC 25922 at 30 ug/disk after 24 hrs by diffusion technique. The following applies: ATCC 25922, 24 h, read-out: DIZ.
The test system of another assay is Pseudomonas aeruginosa. Briefly: Antibacterial activity against Pseudomonas aeruginosa at 30 ug/disk after 24 hrs by diffusion technique. As to conditions: read-out: DIZ.
In a further assay the test system is Candida albicans. Briefly: Antifungal activity against Candida albicans at 100 ug/disk after 24 hrs by diffusion technique. The following applies: for zone of inhibition at 100 µg/disc: read-out: DIZ.

On to `O=C(C[n+]1cccc(-c2ccc(Br)cc2)n1)c1ccc(O)c(O)c1`, for which the zone of inhibition at 30 µg/disc in the assay with Staphylococcus aureus worked out at 17 mm; in assay [1], 21 mm; in the assay on Micrococcus luteus it was 30 mm; in the assay with Bacillus cereus it was 9 mm; in the assay with Bacillus subtilis, 16 mm; in the assay with Escherichia coli, 15 mm. Also, in the assay on Pseudomonas aeruginosa, the zone of inhibition at 30 µg/disc was 15 mm. For the same compound, in the assay with Candida albicans, the zone of inhibition at 100 µg/disc worked out at 12 mm.

For the compound `O=C(N[C@H](CO)[C@H](O)c1ccc([N+](=O)[O-])cc1)C(Cl)Cl` [CHLORAMPHENICOL], the zone of inhibition at 30 µg/disc in the assay on Staphylococcus aureus was found to be 23 mm; in assay [1] it was 23 mm; with Micrococcus luteus, 38 mm; with Bacillus cereus, 22 mm; in the assay with Bacillus subtilis it was 22 mm; in the assay on Escherichia coli it was 22 mm. Also, in the assay with Pseudomonas aeruginosa, the zone of inhibition at 30 µg/disc was determined as 11 mm.

On to `Cc1ccc[n+](CC(=O)c2ccc(O)c(O)c2)n1`, for which the zone of inhibition at 30 µg/disc in the assay on Staphylococcus aureus is 26 mm; in assay [1], 29 mm; with Micrococcus luteus, 40 mm; in the assay with Bacillus cereus, 29 mm; in the assay with Bacillus subtilis it was 28 mm; in the assay on Escherichia coli it was 28 mm. For the same compound, the zone of inhibition at 30 µg/disc in the assay on Pseudomonas aeruginosa is 18 mm. Also, the zone of inhibition at 100 µg/disc with Candida albicans was found to be 15 mm.

`Cc1cc[n+](CC(=O)c2ccc(O)c(O)c2)cn1`: the zone of inhibition at 30 µg/disc in the assay with Staphylococcus aureus is 31 mm; in assay [1] it was 35 mm; with Micrococcus luteus it was 40 mm; with Bacillus cereus it was 35 mm; in the assay on Bacillus subtilis, 36 mm; with Escherichia coli, 41 mm. Besides, the zone of inhibition at 30 µg/disc in the assay on Pseudomonas aeruginosa was 30 mm. Besides, the zone of inhibition at 100 µg/disc with Candida albicans worked out at 27 mm.

For `Cc1ccc(-c2ccc[n+](CC(=O)c3ccc(O)c(O)c3)n2)cc1`, the zone of inhibition at 30 µg/disc in the assay on Staphylococcus aureus was determined as 23 mm; in assay [1] it was 40 mm; with Micrococcus luteus, 41 mm; in the assay on Bacillus cereus it was 33 mm; in the assay with Bacillus subtilis, 35 mm; with Escherichia coli, 40 mm. Moreover, the zone of inhibition at 30 µg/disc with Pseudomonas aeruginosa was determined as 16 mm. Moreover, in the assay on Candida albicans, the zone of inhibition at 100 µg/disc was 25 mm.

As to `O=C(C[n+]1ccc(O)nc1)c1ccc(O)c(O)c1`, the zone of inhibition at 30 µg/disc worked out at 33 mm with Staphylococcus aureus; 35 mm in assay [1]; 42 mm with Micrococcus luteus; 32 mm in the assay on Bacillus cereus; 38 mm in the assay on Bacillus subtilis; 44 mm in the assay on Escherichia coli. Further, the zone of inhibition at 30 µg/disc in the assay on Pseudomonas aeruginosa was 36 mm. In addition, in the assay with Candida albicans, the zone of inhibition at 100 µg/disc was determined as 28 mm.

For NYSTATIN, in the assay with Candida albicans, the inhibition zone (IZ) stood at 28 mm.

For the compound `O=C(C[n+]1ccccn1)c1ccc(O)c(O)c1`, the zone of inhibition at 30 µg/disc in the assay with Staphylococcus aureus was 17 mm; in assay [1] it was 15 mm; in the assay with Micrococcus luteus it was 30 mm; in the assay on Bacillus cereus, 20 mm; with Bacillus subtilis, 11 mm; in the assay with Escherichia coli it was 30 mm. Moreover, the zone of inhibition at 30 µg/disc in the assay on Pseudomonas aeruginosa is 20 mm. Also, in the assay with Candida albicans, the zone of inhibition at 100 µg/disc was 0 mm.

Source of the values: ChEMBL document CHEMBL1137691, “Diazinium salts with dihydroxyacetophenone skeleton: Syntheses and antimicrobial activity” (2009).
